We go through 1 cell line from the supplement of paper PMC10307832.

Test in all cases: relative viability (nuclei count vs DMSO), 5 days (fraction); higher = more cells survive
Compound in the test “Apatinib + Pictilisib”: N#CC1(c2ccc(NC(=O)c3cccnc3NCc3ccncc3)cc2)CCCC1 [Apatinib] + CS(=O)(=O)N1CCN(Cc2cc3nc(-c4cccc5[nH]ncc45)nc(N4CCOCC4)c3s2)CC1 [Pictilisib] (partner 1 µM)
Put shortly: (§1)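 Values are medians from duplicate plates. Each reflects relative viability, defined as the nuclei count of treated wells over that of vehicle wells. Lung cancer cell lines in 1536-well plates were pin-tool dosed one day after seeding with one drug alone or with a fixed anchor-drug dose plus five library-drug doses (not always all listed) in √10 steps, then fixed, stained and imaged at 4× after 5 days.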

Compound in the test “Apatinib + Crizotinib”: N#CC1(c2ccc(NC(=O)c3cccnc3NCc3ccncc3)cc2)CCCC1 [Apatinib] + C[C@@H](Oc1cc(-c2cnn(C3CCNCC3)c2)cnc1N)c1c(Cl)ccc(F)c1Cl [Crizotinib] (partner 1 µM)
Put shortly:
as §1

Compound in the test “Metformin + OSI-027”: CN(C)C(=N)NC(=N)N [Metformin] + COc1cccc2cc(-c3nc([C@H]4CC[C@H](C(=O)O)CC4)n4ncnc(N)c34)[nH]c12 [OSI-027] (partner 0.5 µM)
Put shortly:
as §1

Compound in the test “Metformin + Navitoclax”: CN(C)C(=N)NC(=N)N [Metformin] + CC1(C)CCC(c2ccc(Cl)cc2)=C(CN2CCN(c3ccc(C(=O)NS(=O)(=O)c4ccc(N[C@H](CCN5CCOCC5)CSc5ccccc5)c(S(=O)(=O)C(F)(F)F)c4)cc3)CC2)C1 [Navitoclax] (partner 0.5 µM)
Put shortly:
as §1

On to NCI-H460, for which the relative viability with Apatinib + Pictilisib (first compound 0.08 µM) was found to be 0.335; in the test with Apatinib + Pictilisib (first compound 0.253 µM), 0.374; with Apatinib + Pictilisib (first compound 0.8 µM), 0.452; with Apatinib + Pictilisib (first compound 2.53 µM), 0.391; with Apatinib + Pictilisib (first compound 8 µM), 0.458; with Apatinib + Crizotinib (first compound 0.08 µM), 1.04. The relative viability turned out to be 0.907 with Apatinib + Crizotinib (first compound 0.253 µM); 0.727 with Apatinib + Crizotinib (first compound 0.8 µM); 0.848 with Apatinib + Crizotinib (first compound 2.53 µM); 0.857 in the test with Apatinib + Crizotinib (first compound 8 µM); 0.685 with Metformin + OSI-027 (first compound 10 µM); 0.664 in the test with Metformin + OSI-027 (first compound 31.62 µM). Moreover, the relative viability with Metformin + OSI-027 (first compound 100 µM) is 0.547; with Metformin + OSI-027 (first compound 316.23 µM), 0.49; with Metformin + OSI-027 (first compound 1000 µM), 0.762; with Metformin + Navitoclax (first compound 31.62 µM), 1.22; in the test with Metformin + Navitoclax (first compound 100 µM), 1.16; with Metformin + Navitoclax (first compound 316.23 µM), 1.02. Besides, in the test with Metformin + Navitoclax (first compound 1000 µM), the relative viability came to 1.14.
